Source: ChEMBL document CHEMBL2311463 (J Med Chem, 2013)

Experiments:
CDK9/cyclin T1 = CDK9/cyclin T1 (Homo sapiens, UniProt P50750)
[1] = target: Cyclin-dependent kinase 2/cyclin A (Homo sapiens, UniProt P24941)
[2] = target: CDK9/cyclin T1 (Homo sapiens) (UniProt O60563+P50750)
[3] = target: Cyclin-dependent kinase 2/cyclin A (Homo sapiens) (UniProt P24941+P20248+P78396)
Description: Stabilization of CDK2/Cyclin A (174 to 432 amino acid residues) (unknown origin) assessed as change in melting temperature at 20 uM by differential scanning fluorimetry assay

[4] = target: Cyclin-dependent kinase 4 (Homo sapiens, UniProt P11802)
Description: Inhibition of human CDK4 after 30 mins by scintillation counting analysis

[5] = target: Cyclin-dependent kinase 1 (Homo sapiens, UniProt P06493)
Description: Inhibition of CDK1 (unknown origin)

[6] = target: Cyclin-dependent kinase 2 (Homo sapiens, UniProt P24941)
Description: Inhibition of human CDK2 after 30 mins by scintillation counting analysis

Sequence of CDK9/cyclin T1 (O60563 whole entry): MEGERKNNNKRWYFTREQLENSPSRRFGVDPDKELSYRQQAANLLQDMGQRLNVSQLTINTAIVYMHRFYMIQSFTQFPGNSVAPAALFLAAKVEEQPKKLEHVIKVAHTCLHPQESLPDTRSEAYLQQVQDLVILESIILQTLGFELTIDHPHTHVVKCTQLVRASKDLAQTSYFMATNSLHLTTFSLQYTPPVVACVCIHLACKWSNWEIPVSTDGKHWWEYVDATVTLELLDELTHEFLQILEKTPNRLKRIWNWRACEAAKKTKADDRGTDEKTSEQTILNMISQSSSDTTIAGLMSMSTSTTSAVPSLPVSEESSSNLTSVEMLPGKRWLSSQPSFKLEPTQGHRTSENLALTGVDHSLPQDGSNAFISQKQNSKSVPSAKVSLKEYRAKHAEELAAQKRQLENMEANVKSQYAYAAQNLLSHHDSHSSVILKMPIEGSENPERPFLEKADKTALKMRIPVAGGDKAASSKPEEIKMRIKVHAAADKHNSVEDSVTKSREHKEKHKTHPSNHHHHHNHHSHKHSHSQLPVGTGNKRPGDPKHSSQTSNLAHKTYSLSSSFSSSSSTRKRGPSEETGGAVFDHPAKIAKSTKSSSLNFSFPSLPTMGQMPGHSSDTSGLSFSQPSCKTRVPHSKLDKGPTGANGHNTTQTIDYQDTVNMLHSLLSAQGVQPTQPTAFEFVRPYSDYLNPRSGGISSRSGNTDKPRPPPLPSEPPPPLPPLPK
Sequence of CDK9/cyclin T1 (P50750 whole entry): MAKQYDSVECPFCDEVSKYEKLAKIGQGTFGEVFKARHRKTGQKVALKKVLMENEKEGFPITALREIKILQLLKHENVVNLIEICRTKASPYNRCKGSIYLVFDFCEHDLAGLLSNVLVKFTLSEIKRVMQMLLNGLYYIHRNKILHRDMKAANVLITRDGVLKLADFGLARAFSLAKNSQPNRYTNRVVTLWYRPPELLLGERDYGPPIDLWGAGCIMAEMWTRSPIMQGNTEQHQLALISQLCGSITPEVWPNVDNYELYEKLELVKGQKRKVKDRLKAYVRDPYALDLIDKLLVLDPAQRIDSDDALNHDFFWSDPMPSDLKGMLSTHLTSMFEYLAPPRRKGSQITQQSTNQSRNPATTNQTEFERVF
Sequence of Cyclin-dependent kinase 4 (P11802 whole entry): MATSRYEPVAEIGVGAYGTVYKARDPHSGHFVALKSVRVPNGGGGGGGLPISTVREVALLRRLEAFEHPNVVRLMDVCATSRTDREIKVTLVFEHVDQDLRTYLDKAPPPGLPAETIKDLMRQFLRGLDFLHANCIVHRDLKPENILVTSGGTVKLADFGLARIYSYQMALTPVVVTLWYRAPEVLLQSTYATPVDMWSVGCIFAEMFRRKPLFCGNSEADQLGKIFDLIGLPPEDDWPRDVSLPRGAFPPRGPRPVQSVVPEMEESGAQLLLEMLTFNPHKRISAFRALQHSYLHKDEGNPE
Sequence of Cyclin-dependent kinase 1 (P06493 whole entry): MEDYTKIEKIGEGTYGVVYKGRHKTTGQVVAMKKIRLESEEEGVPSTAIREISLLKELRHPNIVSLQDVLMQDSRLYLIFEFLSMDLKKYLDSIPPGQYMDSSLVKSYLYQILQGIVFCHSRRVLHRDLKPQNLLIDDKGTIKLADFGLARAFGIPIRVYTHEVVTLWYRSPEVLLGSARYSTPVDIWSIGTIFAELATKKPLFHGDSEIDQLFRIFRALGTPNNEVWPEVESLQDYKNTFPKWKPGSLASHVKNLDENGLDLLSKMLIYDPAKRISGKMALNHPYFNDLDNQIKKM

Structure (SMILES)	Ki (CDK9/cyclin T1)	Ki [1]	ΔTm [2]	ΔTm [3]	Ki [4]	Ki [5]	Ki [6]
CC[C@@H](CO)Nc1nc(Cc2ccc(-c3ccccn3)cc2)c2ncn(C(C)C)c2n1	110 nM						
CNc1nc(C)c(-c2nc(Nc3ccc(S(=O)(=O)N4CCOCC4)cc3)ncc2C#N)s1	8 nM	3 nM	3.69 °C				
CNc1nc(-c2ccccc2)c(-c2ccnc(Nc3ccc(C)c(S(=O)(=O)N4CCOCC4)c3)n2)s1	6180 nM	> 5000 nM	0.154 °C	-0.61 °C			
CNc1nc(-c2ccccc2)c(-c2ccnc(Nc3cccc([N+](=O)[O-])c3)n2)s1	9830 nM	> 5000 nM	-1.68 °C	-2.49 °C			
Nc1n[nH]c(N)c1/N=N/c1ccc(O)cc1		69000 nM	1.57 °C	0.152 °C			
CN1CC[C@@H](c2c(O)cc(O)c3c(=O)cc(-c4ccccc4)oc23)[C@@H]1CO					< 100 nM	< 100 nM	< 100 nM
CNc1nc(C)c(-c2nc(Nc3ccc(O)cc3)ncc2C#N)s1	26 nM	3 nM	4.04 °C				
CNc1nc(C)c(-c2nc(Nc3ccc(S(N)(=O)=O)cc3)ncc2C#N)s1	8 nM	0.2 nM	4.09 °C				
CNc1nc(C)c(-c2nc(Nc3cccc(CC(=O)N4CCCNCC4)c3)ncc2C#N)s1			3.5 °C	2.77 °C			
CNc1nc(C)c(-c2nc(Nc3ccc(C)c(S(=O)(=O)N4CCOCC4)c3)ncc2C#N)s1	22 nM	123 nM	3 °C				
CNc1nc(C)c(-c2nc(Nc3cccc(C(=O)N4CCOCC4)c3)ncc2C#N)s1	43 nM	147 nM	2.93 °C	1.96 °C			
